The target in the test is GST–VCB protein complex (Homo sapiens, UniProt P40337). The class given is binding. To be noted: reported FP Kd versus TR-FRET Ki. On the technique in general: In TR-FRET formats the signal depends on donor and acceptor labels being close together.
Chain of GST–VCB protein complex (P40337 54-213): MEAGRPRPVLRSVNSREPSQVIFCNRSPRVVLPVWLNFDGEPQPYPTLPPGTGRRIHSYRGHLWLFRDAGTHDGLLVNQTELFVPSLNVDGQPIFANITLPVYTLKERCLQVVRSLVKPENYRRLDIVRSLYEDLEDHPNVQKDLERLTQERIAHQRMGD
Chain of GST–VCB protein complex (Q15369 17-112, further chain): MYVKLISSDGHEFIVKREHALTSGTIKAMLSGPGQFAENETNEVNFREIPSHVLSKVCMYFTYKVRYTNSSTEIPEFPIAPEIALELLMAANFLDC
Chain of GST–VCB protein complex (Q15370 whole entry, further chain): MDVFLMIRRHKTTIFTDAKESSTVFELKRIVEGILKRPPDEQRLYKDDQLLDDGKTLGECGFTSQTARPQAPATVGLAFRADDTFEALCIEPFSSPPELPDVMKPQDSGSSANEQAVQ

On to `CC(=O)N[C@H](C(=O)N1C[C@H](O)C[C@H]1C(=O)NCc1ccc(-c2scnc2C)cc1)C(C)(C)C` [VH032 (1), (2S,4R)-1-((S)-2-Acetamido-3,3-dimethylbutanoyl)-4-hydroxy-N-(4-(4-methylthiazol-5-yl)benzyl)pyrrolidine-2-carboxamide], for which the “sensitivity of TR-FRET assay over FAM–HIF–1α peptide (19 mer)-based FP assay” value stood at 4.49 fold. The value for `Cc1ncsc1-c1ccc(CNC(=O)[C@@H]2C[C@@H](O)CN2C(=O)[C@@H](NC(=O)C2(C#N)CC2)C(C)(C)C)cc1` [VH298 (2), (2S,4R)-1-((S)-2-(1-Cyanocyclopropanecarboxamido)-3,3-dimethylbutanoyl)-4-hydroxy-N-(4-(4-methylthiazol-5-yl)benzyl)pyrrolidine-2-carboxamide] was 4.23 fold.

For the origin of these results see publication PMC7807814 (ACS Omega, 2020).
